Measurements as given in article PMC6478823, “A suite of phenotypic assays to ensure pipeline diversity when prioritizing drug-like Cryptosporidium growth inhibitors” (Nature Communications, 2019).

Experiments:
Assay type in all cases: cell-based, Cryptosporidium parvum
C. parvum [1] = conditions: compound at EC90; for Invasion Assay: Mean % Inhibition (parasites), Average: average of replicates; for Invasion Assay: Mean % Inhibition (parasites), Replicate 1a: single biological replicate 1; for Invasion Assay: Mean % Inhibition (parasites), Replicate 2a: single biological replicate 2; for Sporozoite invasion: yes/no grouping by phenotypic assay result
[2] = system: C. parvum DMC1 expression; assay: Sexual differentiation assay (DMC1 expression); conditions: compound at asexual EC90, 48-72 h; for Asexual to sexual differentiation: Mean % DMC1 inhibition (normalized to host nuclei), Average: average of replicates; for Asexual to sexual differentiation: Mean % DMC1 inhibition (normalized to host nuclei), Replicate 1a: single replicate 1; for Asexual to sexual differentiation: Mean % DMC1 inhibition (normalized to host nuclei), Replicate 2a: single replicate 2; for Asexual to sexual differentiation: Mean % DMC1 inhibition (normalized to host nuclei), Replicate 3a: single replicate 3
In short: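 Compounds applied at their previously determined asexual-assay EC90, and % inhibition of DMC1 expression reported. Readout: 4% paraformaldehyde fixation, immunostaining with mAb 1H10G7 plus fluorescein-lectin and Hoechst, tiled 20× imaging in 384-well format, ImageJ analysis counting lectin-positive then DMC1-positive parasites.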

C. parvum [3] = assay: DNA replication assay (EdU incorporation); conditions: compound at EC90; for DNA Synthesis Assay: Mean % Inhibition of EdU-labeling (normalized to parasite numbers), Average: average of replicates; for DNA Synthesis Assay: Mean % Inhibition of EdU-labeling (normalized to parasite numbers), Replicate 1: single replicate 1; for DNA Synthesis Assay: Mean % Inhibition of EdU-labeling (normalized to parasite numbers), Replicate 2: single replicate 2; for DNA Synthesis Assay: Mean % Inhibition of EdU-labeling (normalized to parasite numbers), Replicate 3: single replicate 3; for DNA Synthesis Assay: Mean % Inhibition of EdU-labeling (normalized to parasite numbers), Replicate 4: single replicate 4; for DNA synthesis: yes/no grouping by phenotypic assay result; for DNA Synthesis Assay: Mean % Inhibition of EdU-labeling (normalized to parasite numbers), Replicate 5: single replicate 5

| Structure (SMILES) | Invasion Assay: Mean % Inhibition (parasites), Average (C. parvum [1]) | Invasion Assay: Mean % Inhibition (parasites), Replicate 1a (C. parvum [1]) | Invasion Assay: Mean % Inhibition (parasites), Replicate 2a (C. parvum [1]) | Sporozoite invasion (C. parvum [1]) | Asexual to sexual differentiation: Mean % DMC1 inhibition (normalized to host nuclei), Average [2] | Asexual to sexual differentiation: Mean % DMC1 inhibition (normalized to host nuclei), Replicate 1a [2] | Asexual to sexual differentiation: Mean % DMC1 inhibition (normalized to host nuclei), Replicate 2a [2] | DNA Synthesis Assay: Mean % Inhibition of EdU-labeling (normalized to parasite numbers), Average (C. parvum [3]) | DNA Synthesis Assay: Mean % Inhibition of EdU-labeling (normalized to parasite numbers), Replicate 1 (C. parvum [3]) | DNA Synthesis Assay: Mean % Inhibition of EdU-labeling (normalized to parasite numbers), Replicate 2 (C. parvum [3]) | DNA Synthesis Assay: Mean % Inhibition of EdU-labeling (normalized to parasite numbers), Replicate 3 (C. parvum [3]) | DNA Synthesis Assay: Mean % Inhibition of EdU-labeling (normalized to parasite numbers), Replicate 4 (C. parvum [3]) | DNA synthesis (C. parvum [3]) | Invasion Assay: Mean % Inhibition (parasites), Replicate 3a (C. parvum [1]; single biological replicate 3) | Invasion Assay: Mean % Inhibition (parasites), Replicate 4a (C. parvum [1]; single biological replicate 4) | Asexual to sexual differentiation: Mean % DMC1 inhibition (normalized to host nuclei), Replicate 3a [2] | DNA synthesis (mean % inhibition) (C. parvum [3]; EdU added 9 h post-infection for 2 h) | DNA Synthesis Assay: Mean % Inhibition of EdU-labeling (normalized to parasite numbers), Replicate 5 (C. parvum [3]) | DNA Synthesis Assay: Mean % Inhibition of EdU-labeling (normalized to parasite numbers), Replicate 6 (C. parvum [3]; single replicate 6) |
| --- | --- | --- | --- | --- | --- | --- | --- | --- | --- | --- | --- | --- | --- | --- | --- | --- | --- | --- | --- |
| O=C(NC(c1ccccc1)c1ccc2cccnc2c1O)c1ccccc1 (stereo not drawn) [A-5] | -13.46% | -13% | -14% | no | 65.35% | 63.04% | 67.67% | 99.95% | 100.00% | 100.00% | 99.80% | 100.00% | yes |  |  |  |  |  |  |
| CN(C)S(=O)(=O)c1ccc(C(=O)N2CCN(c3ccc4nncn4n3)CC2)cc1 [D-44] | -11.48% | -25% | -14% |  | 74.35% | 86.32% | 62.37% | 12.07% | 29.16% | 10.90% | -3.84% |  |  | 2% | -9% |  |  |  |  |
| COc1ccc(Nc2nc(NCc3ccccc3Cl)c3ccccc3n2)cc1Cl [B-13] | 82.51% | 92% | 73% | yes | 11.26% | 30.33% | -7.82% | -3.46% | 5.94% | -6.60% | -9.73% |  | no |  |  |  |  |  |  |
| O=C(CC1NCCCC1O)Cn1cnc2cc(Br)c(Cl)cc2c1=O (stereo not drawn) [Halofuginone] | 6.92% | 11% | 2.47% |  | 68.25% | 51.29% | 73.88% | 88.20% | 85.31% | 91.09% |  |  |  |  |  | 79.59% |  |  |  |
| c1ccc(CNc2nc(NC3CCCC3)nc3ccccc23)cc1 [B-5] | 82.99% | 81% | 85% | yes | 7.84% | 11.99% | -2.17% | -9.25% | -17.04% | 19.85% | -30.57% |  | no |  |  | 13.72% |  |  |  |
| CCOc1ccc2cc(-c3nn(CC4CCN(C)CC4)c4ncnc(N)c34)ccc2c1 [BKI-1294] | -6.64% | 12% | -26% |  | 45.56% | 58.94% | 32.18% | -5.73% | -9.55% | -1.92% |  |  |  |  |  |  |  |  |  |
| Oc1c(C(Nc2ccccn2)c2cccc(Oc3ccccc3)c2)ccc2cccnc12 (stereo not drawn) [A-2] | -15.19% | -13% | -17% | no | 36.33% | 56.25% | 16.42% | 100.00% | 100% | 100% |  |  | yes |  |  |  | 100.00% |  |  |
| CC(=O)O[C@@]12CO[C@@H]1C[C@H](O)[C@@]1(C)C(=O)[C@H](O)C3=C(C)[C@@H](OC(=O)[C@H](O)[C@@H](NC(=O)OC(C)(C)C)c4ccccc4)C[C@@](O)([C@@H](OC(=O)c4ccccc4)[C@H]21)C3(C)C [Docetaxel] | -8.63% | -1.34% | -16% |  | 37.07% | 34.13% | 40.00% | 16.66% | 33.42% | -0.10% |  |  |  |  |  |  |  |  |  |
| O=c1[nH]c(=O)n([C@H]2C[C@H](O)[C@@H](CO)O2)cc1F [Floxuridine] | -28.03% | -30% | -26% | no | -7.53% | -14.02% | -1.05% | 20.42% | 15.13% | 27.54% | -10.47% | 28.26% | no |  |  |  |  | 37.17% | 24.87% |
| O=C(Nc1ccc(Cl)c(Cl)c1)N1CCN(c2ccc3nncn3n2)CC1 [D-28] | -13.23% | -5% | -22% |  | 81.40% | 86.90% | 86.80% | 3.38% | 14.86% | -8.10% |  |  |  |  |  | 70.51% |  |  |  |
| CC(=NOCCN)c1cccc(C(C)(C)NC(=O)Nc2ccc(Cl)c(C(F)(F)F)c2)c1 [P257] | 9.88% | 4% | 16% |  | 70.52% | 67.08% | 73.96% | 97.76% | 97.49% | 98.03% |  |  |  |  |  |  |  |  |  |
| Oc1c(CN2CCN(c3ccccc3F)CC2)cc(Br)c2cccnc12 [A-6] | -20.21% | -18% | -23% | no | 17.22% | 31.05% | 3.39% | 89.49% | 98.00% | 97.32% | 80.45% | 78.02% | yes |  |  |  |  | 93.68% |  |
